# Reference: patent publication US4725683A, “Fluorophenoxyphenoxypropionates and derivatives thereof” (The Dow Chemical Company, priority 1985, dated 1988)
# What was measured:
# Assay type in all cases: in vivo
# [1] = tested on: Foxtail; experiment: Postemergent control of plant species; conditions: 250 ppm
# [2] = tested on: Barnyard Grass; experiment: Postemergent activity
# Protocol: (§1) Representative compositions of the present invention were evaluated for the postemergence control of species of plants listed in Table A. In these evaluations, pots of the plant species listed in Table A, grown to a height of about 10 cms, were used. Aqueous spray compositions, containing various amounts of 2-[4-(2-fluoro-4-trifluoromethylphenoxy)-phenoxy]propionic acid methy ester, i.e., 125 ppm, 62.5 ppm, 31.25 ppm, 15.6 ppm, 7.8 ppm and 3.9 ppm, respectively, were applied to separate pots. The spray compositions were made by mixing the active ingredient in acetone to 1/2 the final volume, i.e., twice the final concentration. An equal amount of water was added to the active ingredient/acetone mixture wherein the water contained 0.1 percent by weight of TWEEN® 200 surfactant. The application to the plants was made to the point of run-off and was carried out with conventional spraying equipment. Other pots were sprayed with similar compositions containing no toxicant to serve as controls. Thereafter, the pots were maintained under conditions conducive for plant growth. Two weeks after treatment, the pots were examined for plant growth and evaluated on a scale of 0 to 100 where 0 represents no effect and 100 represents complete kill. The results of the examination of the treated pots are set forth below in Table A.
# (§2) Substantially the same procedures as those described in Example A were repeated except that the active ingredients were 2-[4-(4-chloro-2-fluorophenoxy)phenoxy]propionic acid; methyl ester and its R-enantiomer and 2-(4-(4-bromo-2-fluorophenoxy)phenoxy propionic acid; methyl ester and its R enantiomer. The results are listed below in Table B.
# (§3) In further operations employing the above general procedures and the indicated test compounds the following results were obtained: […]
# [3] = tested on: Wild Oats; experiment: Postemergent activity; conditions: Avena fatua, post-emergence, 336 h
# Protocol: as §1, §2, §3
# [4] = tested on: Crabgrass; experiment: Postemergent activity
# Protocol: as §1, §2, §3
# [5] = tested on: Wheat; experiment: Postemergent activity; conditions: Triticum aestivum, post-emergence, 336 h, read-out: % Control
# Protocol: as §1, §2, §3
# [6] = tested on: Foxtail; experiment: Postemergent control of plant species
# Protocol: as §1, §3
# [7] = tested on: Yellow Foxtail; experiment: Postemergent activity
# Protocol: Representative compositions of the present invention were evaluated for the postemergence control of species of plants listed in Table A. In these evaluations, pots of the plant species listed in Table A, grown to a height of about 10 cms, were used. […] The spray compositions were made by mixing the active ingredient in acetone to 1/2 the final volume, i.e., twice the final concentration. An equal amount of water was added to the active ingredient/acetone mixture wherein the water contained 0.1 percent by weight of TWEEN® 200 surfactant. The application to the plants was made to the point of run-off and was carried out with conventional spraying equipment. […] Thereafter, the pots were maintained under conditions conducive for plant growth.
# [8] = tested on: Johnson Grass; experiment: Postemergent activity
# Protocol: as §1
# [9] = tested on: Johnson Grass; experiment: Preemergent activity; conditions: Sorghum halepense, pre-emergence, read-out: Preemergence Control
# Procedure, shortened: (§4)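 Test compound was dissolved in acetone at twice the final concentration, then mixed with an equal volume of water containing 0.1% w/w Tween-20. The resulting emulsion was sprayed uniformly at a predetermined rate onto sandy loam seed beds sown with each species. Controls received acetone–Tween-20–water only.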
# [10] = tested on: Barnyard Grass; experiment: Preemergent activity; conditions: Echinochloa crus-galli, pre-emergence, read-out: Preemergence Control
# Procedure, shortened: as §4
# [11] = tested on: Wild Oats; experiment: Preemergent activity; conditions: Avena fatua, pre-emergence, read-out: Preemergence Control
# Procedure, shortened: as §4
# [12] = tested on: Yellow Foxtail; experiment: Preemergent activity; conditions: Setaria, pre-emergence, read-out: Preemergence Control
# Procedure, shortened: as §4
# [13] = tested on: Wheat; experiment: Preemergent activity; conditions: Triticum aestivum, pre-emergence, read-out: Preemergence Control
# Procedure, shortened: as §4
smiles,measurement,setting,value
CC(=O)CC(O)C(C)Oc1ccc(Oc2ccc(Br)cc2F)cc1 (stereo not shown),Percent Control,[1],25%
same,% Control,[2]; 7.8 ppm,0%
same,% Control,[2]; 15.6 ppm,0%
same,% Control,[2]; 31.2 ppm,0%
same,% Control,[2]; 62.5 ppm,0%
same,% Control,[2]; 125 ppm,0%
same,% Control,[2]; 250 ppm,0%
same,pest or weed control at 7.8 ppm,"[3]; 7.8 ppm, read-out: % Control",0%
same,pest or weed control at 15.6 ppm,[3]; read-out: % Control,0%
same,pest or weed control at 31.2 ppm,[3]; 31.2 ppm,0%
same,pest or weed control at 62.5 ppm,[3]; read-out: % Control,0%
same,pest or weed control at 125 ppm,[3]; read-out: % Control,0%
same,pest or weed control at 250 ppm,"[3]; 250 ppm, read-out: % Control",0%
same,% Control,[4]; 7.8 ppm,0%
same,% Control,[4]; 15.6 ppm,0%
same,% Control,[4]; 31.2 ppm,0%
same,% Control,[4]; 62.5 ppm,95%
same,% Control,[4]; 125 ppm,95%
same,plant injury at 7.8 ppm,[5]; 7.8 ppm,0%
same,plant injury at 15.6 ppm,[5],0%
same,plant injury at 31.2 ppm,[5]; 31.2 ppm,0%
same,plant injury at 62.5 ppm,[5],0%
same,plant injury at 125 ppm,[5],0%
same,Percent Control,[6]; 7.8 ppm,0%
same,Percent Control,[6]; 15.6 ppm,0%
same,Percent Control,[6]; 31.2 ppm,0%
same,Percent Control,[6]; 62.5 ppm,0%
same,Percent Control,[6]; 125 ppm,20%
COC(=O)C(C)Oc1ccc(Oc2ccc(I)cc2F)cc1 (stereo not shown) [2-(4-(2-fluoro-4-iodophenoxy)phenoxy)propionic acid methyl ester],% Control,[7]; 15.6 ppm,90%
same,% Control,[7]; 31.25 ppm,100%
same,% Control,[7]; 62.5 ppm,100%
same,% Control,[7]; 125 ppm,100%
same,% Control,[8]; 15.6 ppm,90%
same,% Control,[8]; 31.25 ppm,100%
same,% Control,[8]; 62.5 ppm,100%
same,% Control,[8]; 125 ppm,100%
same,% Control,[2]; 15.6 ppm,10%
same,% Control,[2]; 31.25 ppm,85%
same,% Control,[2]; 62.5 ppm,100%
same,% Control,[2]; 125 ppm,100%
same,pest or weed control at 15.6 ppm,[3]; read-out: % Control,0%
same,pest or weed control at 31.25 ppm,"[3]; 31.25 ppm, read-out: % Control",0%
same,pest or weed control at 62.5 ppm,[3]; read-out: % Control,0%
same,pest or weed control at 125 ppm,[3]; read-out: % Control,0%
same,% Control,[4]; 15.6 ppm,100%
same,% Control,[4]; 31.25 ppm,100%
same,% Control,[4]; 62.5 ppm,100%
same,% Control,[4]; 125 ppm,100%
same,plant injury at 15.6 ppm,[5],0%
same,plant injury at 31.25 ppm,[5]; 31.25 ppm,0%
same,plant injury at 62.5 ppm,[5],0%
same,plant injury at 125 ppm,[5],0%
same,pest or weed control at 70 g/ha,[9]; 0.07 kgs/hectare,0%
same,pest or weed control at 140 g/ha,[9]; 0.14 kgs/hectare,0%
same,pest or weed control at 280 g/ha,[9]; 0.28 kgs/hectare,60%
same,pest or weed control at 560 g/ha,[9]; 0.56 kgs/hectare,99%
same,pest or weed control at 1120 g/ha,[9]; 1.12 kgs/hectare,100%
same,pest or weed control at 140 g/ha,[10]; 0.14 kgs/hectare,50%
same,pest or weed control at 280 g/ha,[10]; 0.28 kgs/hectare,100%
same,pest or weed control at 560 g/ha,[10]; 0.56 kgs/hectare,97%
same,pest or weed control at 1120 g/ha,[10]; 1.12 kgs/hectare,100%
same,pest or weed control at 70 g/ha,[11]; 0.07 kgs/hectare,0%
same,pest or weed control at 140 g/ha,[11]; 0.14 kgs/hectare,0%
same,pest or weed control at 280 g/ha,[11]; 0.28 kgs/hectare,0%
same,pest or weed control at 560 g/ha,[11]; 0.56 kgs/hectare,95%
same,pest or weed control at 1120 g/ha,[11]; 1.12 kgs/hectare,99%
same,pest or weed control at 70 g/ha,[12]; 0.07 kgs/hectare,0%
same,pest or weed control at 140 g/ha,[12]; 0.14 kgs/hectare,0%
same,pest or weed control at 280 g/ha,[12]; 0.28 kgs/hectare,20%
same,pest or weed control at 560 g/ha,[12]; 0.56 kgs/hectare,100%
same,pest or weed control at 1120 g/ha,[12]; 1.12 kgs/hectare,100%
same,plant injury at 70 g/ha,[13]; 0.07 kgs/hectare,0%
same,plant injury at 140 g/ha,[13]; 0.14 kgs/hectare,0%
same,plant injury at 280 g/ha,[13]; 0.28 kgs/hectare,0%
same,plant injury at 560 g/ha,[13]; 0.56 kgs/hectare,20%
same,plant injury at 1120 g/ha,[13]; 1.12 kgs/hectare,20%
